The values below are quoted from earlier work in US20040009212A1, “Mucoadhesive thermoresponsive medicament-carrier composition” (PHARMA POWER BIOTEC CO. LTD., priority 2002, published 2004).

The subject of the data set is leukoplakia. To be noted: of 12 leukoplakia patients.

As for `NCC(=O)CCC(=O)O` [ALA, 5-aminolevulinic acid], the patients having response (topical ALA in 20wt. % eucerin with arabic gum and paraffin, with PDT) is 9 patients. Also, the “patients having full response” value (topical ALA with PDT) is reported as 5 patients.
